In one assay the test system is Luc-SMNΔ7. Briefly: Luc-SMNΔ7 degradation with proteolysis inhibitors in the presence of CHX. The following applies: for effect on decrease in Luc-SMNΔ7 signal: 5 hours in the presence of CHX. It counts as cell-based, human. How it is done: FIG. 5 is a graph depicting the effect of proteasome inhibitors on inhibiting SMNΔ7 degradation. Luciferase activity is measured after application of proteasome inhibitors (MG132 and Lactacystin), the calpain inhibitor (Calpeptin), the autophagy inhibitor (3-methyladenine; 3-MA), and the lysosomal inhibitor (ammonium chloride; NH4Cl) in the presence of CHX for 5 hours. Error bars represent SDs from three independent experiments.
(§1) Cells (293T cells) were transfected with plasmids expressing various constructs including Luc-SMN, Luc-SMNΔ7, GFP-YG+EMLA or GFP-NS. Forty-eight hours after transfection, the cells were treated with CHX (0.1 mg/ml) for various times as indicated and then assayed for luciferase activity. Luciferase activity at each time point was calculated by comparison to those at time 0, which was set to 100%. Luciferase activities were measured using One-Glo reagent (Promega).
SMN was previously shown to be degraded by the proteasome (Burnett et al., 2009, Mol Cell Biol 29(5):1107-15; Chang et al., 2004, Neurochem. Int. 45(7):1107-12). To determine if SMNΔ7 is also degraded by this system, cells expressing Luc-SMNΔ7 were treated with proteasome inhibitors including MG132 and Lactaeystin, for 5 hours in the presence of CHX. […] Inhibitors of other proteolytic activities, such as lysosomal proteases, autophagy, and calpain (N1-14Cl, 3-methyladenine, and calpeptin, respectively) had no effect.

The subject of the next assay is SMNΔ7^S270A. Briefly: MG132 effect on amount of HA-tagged SMNΔ7^S270A (Western blot). It counts as cell-based, human. The settings on record: 10 μM MG132, 16 hours, 293T cells. How it is done: (§2) FIG. 3, comprising FIG. 3A through FIG. 3D, is a series of images depicting the importance of residue S270 for the activity of the SMNΔ7-DEG through YG+EMLA. FIG. 3A is a schematic illustration depicting seven residues in the YG box that were each mutated to alanine, as indicated. […] depicts the results of Western blot analyses using an anti-HA tag antibody directed against HA-tagged SMN, SMNΔ7, and SMNΔ7^S270A expressed in 293T cells treated with DMSO or 10 μM MG132 (MG) for 16 hours. Fusion proteins were monitored by, and Magoh was used as a control. FIG. 3C is a graph depicting the quantification of HA-tagged proteins depicted in FIG. 3B and compared to HA-SMN without MG132 treatment. Protein amount (%) for SMNΔ7, and SMNΔ7^S270A are calculated relative to HA-SMN not treated with MG132, that is arbitrarily set to 100%. The fold change of each fusion protein amount upon MG132 treatment is indicated in red above the column. […]
(§3) To identify specific residues in the SMN07-DEG that are important for its activity, mutagenesis of the YG box was performed wherein every second residue was converted to alanine in the context of full-length SMNΔ7 and determined the half-life of each in 293T cells. […] The levels of the tagged SMN proteins were then monitored by Western blots using anti-HA antibody (FIG. 3B).

Another assay relates to SMNΔ7. Briefly: MG132 effect on amount of HA-tagged SMNΔ7 (Western blot). It counts as cell-based, human. The following applies: 10 μM MG132, 16 hours, 293T cells. How it is done:
as §2, §3

The subject of the next assay is SMN. Briefly: MG132 effect on amount of HA-tagged SMN (Western blot). It counts as cell-based, human. The following applies: 10 μM MG132, 16 hours, 293T cells. How it is done: as §2, §3
The next assay has as its system 293T cells. Kind of assay: Protein stability assay: luciferase activity of Luc-fused constructs after CHX treatment. The format is cell-based.
Description: To construct plasmids expressing Luc-fused proteins, the luciferase gene was cloned into pcDNA3.1 vector at HindIII/KpnI sites, then DNA fragments encoding full-length wild type human SMN, SMNΔ7, several deletion mutants of SMNΔ7, and optiPEST were inserted into the KpnI/XhoI sites. SMNΔ7 mutants with single amino acid change were generated by mutating residues in YG+EMLA to alanine by Quickchange site-directed mutagenesis kit (Stratagene).
as §1
A reporter system that recapitulates the differential stability of full-length SMN and SMNΔ7 and allows quantitative assessment of SMNΔ7's instability determinants was developed. […] Forty-eight hours after transfection, cells were treated with the protein synthesis inhibitor cycloheximide (CHX), and luciferase activity was measured at time intervals of up to 10 hours. […]

For a further assay, the system named is S5 cells. Briefly: Rescue of S5 cell viability after tetracycline depletion of SMN. It counts as cell-based, chicken. The following applies: retroviral expression, one week after tetracycline (1 μg/ml). How it is done: FIG. 4, comprising FIG. 4A through FIG. 4D, is a series of images depicting the functionality of SMNΔ7^S270A in snRNP assembly and its ability to rescue SMN-deficient cells. FIG. 4 A is a series of panels depicting S5 cells cultured in the presence of tetracycline (1 μg/ml) to deplete endogenous SMN and infected with retroviruses expressing SMN, SMNΔ7, or SMNΔ7^S270A. FIG. 4B is a graph depicting cell growth as in FIG. 4A measured by monitoring the number of live cells at the indicated time points following tetracycline addition. FIG. 4C depicts the results of Western blot analyses of SMN protein in rescued cells (10 days after tetracycline addition). FIG. 4D is a graph depicting SMN complex activity (%) as measured by in vitro snRNP assembly on U4 snRNA in cytoplasmic extracts from rescued cells, using U4ΔSm RNA as a control.
S5 cells were maintained and infected with retroviruses expressing SMN, SMNΔ7, and SMNΔ7^S270A as described (Wang et al., 2001, J. Biol. Chem. 276:9599).
To determine whether SMNΔ7^S270A is a functional SMN protein, a previously established cell system, the S5 cell line, was used to investigate if SMNΔ7^S270A could rescue the viability of SMN-depleted cells. […]

This note sets out measurements from US8993741B2, “SMNdelta7 degron: novel compositions and methods of use” (The Trustees of the University of Pennsylvania, priority 2009, dated 2015).

Peptide text beside a SMILES is read from it. * marks the point of attachment. Cbz = O=C(OCc1ccccc1)*

With `Cn1cnc(N)c2ncnc1-2` [3-methyladenine], in the assay with Luc-SMNΔ7, the “effect on decrease in Luc-SMNΔ7 signal” value is on record as “no effect”. As to `C[C@@H]1C[C@@H]([C@H](O)CC2CC(=O)NC(=O)C2)C(=O)[C@@H](C)C1` [CHX, cycloheximide], the “decrease in signal (luciferase)” value in the assay with Luc-SMNΔ7 (CHX alone, 5 hours, cells expressing Luc-SMNΔ7) was determined as 60%.

Regarding `CC(=O)N[C@@H](CSC(=O)[C@]1([C@@H](O)C(C)C)NC(=O)[C@H](C)[C@@H]1O)C(=O)O` [Lactacystin], in the assay on Luc-SMNΔ7, the “effect on decrease in Luc-SMNΔ7 signal” value is “much smaller decrease”.

Consider `CC(C)C[C@@H](C=O)NC(=O)[C@H](CC(C)C)NC(=O)[C@H](CC(C)C)NC(=O)OCc1ccccc1` [MG132] (Cbz-Leu-Leu-Leu-aldehyde), for which, in the assay on SMNΔ7^S270A, the “effect on the amount of SMNΔ7^S270A” value was “only a moderate effect”. Moreover, the “effect on decrease in Luc-SMNΔ7 signal” value with Luc-SMNΔ7 is given as “much smaller decrease”. For the same compound, the “increase in the amount of SMNΔ7” value in the assay on SMNΔ7 is on record as 3.4 fold. Also, the “effect on the amount of SMN” value with SMN is “only a moderate effect”. For `Cl.N` [N1-14Cl, ammonium chloride], the “effect on decrease in Luc-SMNΔ7 signal” value in the assay with Luc-SMNΔ7 is “no effect”. The same measure, in the same setting: the entry for `CCCC[C@@H](C=O)NC(=O)[C@H](CC(C)C)NC(=O)OCc1ccccc1` [calpeptin] is “no effect”. Turning to “SMN: full-length wild type human survival of motor neurons protein, tested as Luc- or HA-fusion or retrovirally expressed”, in the assay on 293T cells (Luc fusion in 293T cells, CHX 0.1 mg/ml, up to 10 hours), the “half-life (t1/2)” value is over 8 h. Besides, the “amount of SMN relative to SMNΔ7” value in the assay on 293T cells (after 10 hours of CHX chase) was 3 times. The “rescue of viability of SMN-depleted S5 cells” value in the assay with S5 cells was “rescued the viability of S5 cells”.
